Counter-ions that a name gives are not always drawn.
Tests used:
MAO-B = target: T1, MAO-B (Rattus norvegicus, UniProt P19643); assay: Inhibition of MAO activity following sub-acute (14 days) administration to rats, MAO-B; assay type: in vivo; design: from tissue; host or cells: brain, liver and intestine of Sprague Dawley rats; conditions: 20mg/kg daily for 14 days
T1 sequence (P19643 1-520): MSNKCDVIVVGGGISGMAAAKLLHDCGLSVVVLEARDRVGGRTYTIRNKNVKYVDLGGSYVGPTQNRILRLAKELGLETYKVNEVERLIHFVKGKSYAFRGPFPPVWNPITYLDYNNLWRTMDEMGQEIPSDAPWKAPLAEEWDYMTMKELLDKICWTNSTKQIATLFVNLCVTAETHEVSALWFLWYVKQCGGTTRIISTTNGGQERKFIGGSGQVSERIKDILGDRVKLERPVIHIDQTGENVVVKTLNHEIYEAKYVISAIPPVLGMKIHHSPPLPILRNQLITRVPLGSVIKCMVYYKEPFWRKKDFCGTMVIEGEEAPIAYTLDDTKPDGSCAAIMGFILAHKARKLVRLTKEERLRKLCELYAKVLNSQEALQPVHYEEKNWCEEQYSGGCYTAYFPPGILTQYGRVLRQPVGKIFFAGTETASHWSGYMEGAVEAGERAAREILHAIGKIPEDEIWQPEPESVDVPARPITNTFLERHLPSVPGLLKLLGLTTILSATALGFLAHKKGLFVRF
Experimental: Male Sabra mice, weighing 45-50g were injected with test compound solutions (prepared in 0.9% saline). Each dose was administered to two or three mice. The mice were sacrificed two hours after drug administration or at a time corresponding to the peak AChE inhibition time (see Table 6). The brain and liver were rapidly dissected and stored in appropriate vials on ice. The tissues were weighed, diluted to 1/20 in sucrose 0.3M and stored at -20°C before performance of the MAO assay described above. The results given in Table 6 relate to measurements made on brain tissue only.
Experiments were done with Spague Dawley male rats. Procedures were repeated as described in Examples 2.1 and 2.2, but drug administration was continued daily for 14 days. At the end of this period animals were sacrificed and MAO levels determined in the brain, liver and intestines. Compound 17 was administered sub-cutaneously or per os at a dose of 20mg/kg.

mice = assay: Closed head injury in mice: reference memory, Morris water maze; assay type: in vivo; conditions: Morris water maze after CHI, compared to saline treated controls (Figure 1)
Experimental: Morris Water Maze Teat: the water maze consists of a circular aluminium pool, 1m in diameter and 60cm in depth, filled with water to a depth of 17.5cm. The hidden goal platform is a glass vessel (15cm diameter x 16. 5cm height) placed upside down at a fixed location in the pool, 1cm below the surface of the water. The water temperature is maintained at 24°C and the pool is always placed in the same position in the room to provide the same extra-maze cues. Prior to CHI (as described in Example 3 above), mice were given 3 trials per day for 5 consecutive days to establish a baseline performance - measured as the latency to find the platform from the same start location. Commencing 24hr after CHI, mice were retested daily for 2 weeks in 3 trials per day.
It appears that immediately post-CHI mice forget the location of the goal.

In the case of `C#CCNC(C)Cc1cccc(OC(=O)N(C)CC)c1` (stereo not drawn) [Compound 17, 3-(N-Me,N-Etcarbamyloxy)α-methyl, N-propargyl phenethylamine.HCl], the inhibition at 20 mg/kg (MAO-B; po, Brain) is reported as 72%, the inhibition at 20 mg/kg (MAO-B; po, Intestine) is reported as 40% and the inhibition at 20 mg/kg (MAO-B; po, Liver) is reported as 74%. For the same molecule, the inhibition at 20 mg/kg (MAO-B; sc, Brain) was 87%, the inhibition at 20 mg/kg (MAO-B; sc, Intestine) was 33% and the inhibition at 20 mg/kg (MAO-B; sc, Liver) was 51%. For the same molecule, the “latency to find the platform” value (mice) was “reduction in latency”.
